Data published in patent US20140179779A1, “Deuterium Substituted Fumarate Derivatives” (Biogen IDEC MA Inc., priority 2012, published 2014).
Counter-ions that a name gives are not always drawn.

What was measured:
[1] = tested on: patients with relapsing-remitting MS (RRMS); settings: compared with placebo after two years of treatment; cited from earlier work
Nrf2 [2] = test: Nrf2 activation in DLD-1 ARE-luciferase reporter cell line; assay type: cell-based, Human
Protocol: (§1) Human cancer cell line DLD-1 and breast cancer cell line MCF7 reporter stable cell lines were generated by transfection with a firefly luciferase reporter construct harboring the luciferase cDNA cloned downstream of eight catenated copies of the antioxidant response element ([…] ID NO.:1). See Wang et al. Cancer Res. 2006; 66:10983-94. To measure Nrf2 activation in the ARE-luciferase reporter cell lines, the cells were plated in 96-well plates at 20-50 k cells/well 24 hours prior to stimulation with the test compounds. […] The reporter cells were harvested 24 hours-48 hours after addition of the compounds and lysed for detection of luciferase activity. Luciferase activity in the lysates was monitored using the Bright-Glo Luciferase Assay System of Promega and Tecan Genios Pro plate reader. Luciferase induction in the compound-treated cells was calculated as fold change over the baseline activity detected in control cultures treated with DMSO-containing media.

Nrf2 [3] = test: Nrf2 activation in MCF-7 ARE-luciferase reporter cell line; assay type: cell-based, Human
Protocol: as §1

[4] = DLD-1/ARE-E2, 24 hr Stimulation
[5] = DLD-1/ARE-E2, 48 hr Stimulation
[6] = MCF-7/ARE-D3, 24 hr Stimulation
[7] = MCF-7/ARE-D3, 48 hr Stimulation

Compound | clinical relapses, accumulation of disability progression, and lesion number and volume [1] | Maximum Nrf2 Activation Fold Change (Nrf2 [2]; [4]) [fold] | concentration at maximum fold change (@ [uM]) (Nrf2 [2]; [4]) [µM] | Maximum Nrf2 Activation Fold Change (Nrf2 [2]; [5]) [fold] | concentration at maximum fold change (@ [uM]) (Nrf2 [2]; [5]) [µM] | Maximum Nrf2 Activation Fold Change (Nrf2 [3]; [6]) [fold] | concentration at maximum fold change (@ [uM]) (Nrf2 [3]; [6]) [µM] | Maximum Nrf2 Activation Fold Change (Nrf2 [3]; [7]) [fold] | concentration at maximum fold change (@ [uM]) (Nrf2 [3]; [7]) [µM]
COC(=O)/C=C/C(=O)OC [DMF, dimethyl fumarate] | significantly reduced | – | – | – | – | – | – | – | –
O=C(O)/C=C/C(=O)O.[2H]C([2H])([2H])OC(=O)/C=C/C(=O)O [Example 2, (^2H3)methyl fumaric acid ester] | – | 6 | 1000 | 14 | 1000 | 55 | 1000 | 81 | 1000
COC(=O)/C=C/C(=O)O [MMF, monomethyl fumarate] | – | 5 | 1000 | 12 | 1000 | 75 | 1000 | 94 | 750
